The results in this text go back to PMC12373499 (Nature Metabolism, 2025).

Experiment [1] has as its target T1, Nluc–GIPR (hGIPR) (Homo sapiens, UniProt P48546).
T1 construct: expressed in transfected cells; host or cells: HEK293T cells, transient expression
T1 sequence (P48546 22-466): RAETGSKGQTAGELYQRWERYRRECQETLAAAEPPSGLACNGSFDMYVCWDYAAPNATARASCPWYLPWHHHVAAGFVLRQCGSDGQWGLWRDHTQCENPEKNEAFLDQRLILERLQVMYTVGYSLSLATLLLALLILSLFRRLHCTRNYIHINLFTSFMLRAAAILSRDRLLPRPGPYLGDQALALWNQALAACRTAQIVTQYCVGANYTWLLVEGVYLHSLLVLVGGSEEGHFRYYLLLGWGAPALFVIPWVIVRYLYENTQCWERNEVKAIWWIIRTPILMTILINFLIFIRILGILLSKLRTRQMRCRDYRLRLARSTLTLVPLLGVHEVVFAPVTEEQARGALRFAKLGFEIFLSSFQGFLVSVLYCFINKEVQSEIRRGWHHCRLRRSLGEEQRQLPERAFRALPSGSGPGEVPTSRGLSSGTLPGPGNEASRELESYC
The experiment in a line: NanoBRET saturation binding assay, HEK293T cells. As for the experimental part: (§1) HEK293T cells (RRID:CVCL_0063) were cultured in DMEM/F12 GlutaMAX (ThermoFisher), supplemented with 10% FBS and 1% antibiotic-antimycotic solution and cultured at 37 °C, 5% CO2. HEK293T cells were authenticated at source using STR profiling. […] Media was then removed and the cells were incubated in PBS supplemented with 0.1% BSA and 0.01% NanoGlo (Promega). […] Plates were read using a PheraSTAR microplate reader, using the NanoBRET filter module. BRET ratios (λacceptor/λdonor) were calculated, and saturation data fit using the ‘One Site – Specific Binding’ equation of GraphPad Prism 10. Competition binding was fit using the ‘One Site – Fit Ki’ equation.

The target in experiment [2] is T2, Nluc–GLP1R (hGLP1R) (Homo sapiens, UniProt P43220).
T2 construct: expressed in transfected cells; host or cells: HEK293T cells, transient expression
The experiment in a line: NanoBRET saturation binding assay, HEK293T cells. As for the experimental part:
as §1

In experiment [3] the test system is C57BL/N mice. As to the kind of experiment: Food intake study (FED3 devices). The experiment is classed as in vivo, mouse. Particulars: 10 nmol kg^−1 s.c., dark phase and cumulative 24 h, n = 8 mice. As for the experimental part:
Male and female 12–14 week old C57BL/N mice were singly housed in a 12 h dark–light cycle (14:00–02:00 h) and habituated to FED3 feeding devices for 7 days before commencing the study. All mice were kept on a 12 h light–dark cycle at 20–24 °C and 45–65% relative humidity (typically 21 °C and 55%). On test days, mice were fasted for 3 h before onset of the dark phase by removal of the FED3 devices. […] The study was performed using a three-way crossover design. A 1-week washout period was observed between experimental days. FED3 devices were checked, serviced and food was topped up daily.

In experiment [4] the test system is Glp1r^WT/WT, Glp1r^WT/KO and Glp1r^KO/KO mice. As to the kind of experiment: Glucose tolerance testing (IPGTT). The experiment is classed as in vivo, mouse. Further details: Area under the curve for IPGTT: unit not given beside the values. Particulars: for Area under the curve for IPGTT: individual mice. As for the experimental part: Glucose was measured in blood from the tail vein at 0, 15, 30, 60, 90 and 120 min post glucose challenge. Mice were socially housed in specific-pathogen-free conditions under a 12 h light–dark cycle with ad libitum access to food and water, relative humidity 55 ± 10% and temperature 21 ± 2 °C.

The subject of experiment [5] is SC-islets. As to the kind of experiment: Labelling of iPS cell-derived islet-like structures (SC-islets). The experiment is classed as cell-based, human. Particulars: n = 12 SC-islets from two differentiations. Here is the method: For immunostaining, labelled islets were washed three times with PBS, then incubated with 2–4% formalin for 15 min at room temperature (16–25 °C). Islets were again washed three times with PBS, then incubated in permeabilizing blocking buffer for 1 h at room temperature before incubation with primary antibody overnight at 4 °C. The following day, islets were incubated with secondary antibody for 2 h at room temperature before mounting onto microscope slides with […] HardSet with DAPI or Everbrite Hardset. Primary and secondary antibodies are listed in Supplementary Table 5.
Human iPS cells (ALSTEM, iPS11) were maintained on iPS cell-qualified Matrigel (Corning, 354277) in mTeSR+ media (StemCell Technologies, 05826). ALSTEM iPS11 cells were authenticated at source by testing for expression of OCT4 and TRA-1-60, as well as alkaline phosphatase activity. Differentiation to islet-like structures (SC-islets) was carried out in a suspension-based, magnetic CELLSPIN bioreactor system ([…]). Differentiation media was changed daily by letting spheres settle by gravity for 3–10 min. Most of the supernatant was removed by aspiration; fresh media was added and bioreactors were placed back on the stirrer system. SC-islet differentiation was based on published protocols[35],[49]
Probe labelling was analysed using corrected total cell fluorescence, which is integrated density − (area of selected cell × mean fluorescence of background readings)[52],[53]. Colocalization was determined using Manders’ coefficient, which calculates the proportion of pixels in one channel that also show intensity from both channels. Full width at half maximum was used to analyse labelling patterns at the membrane versus cytoplasm. All analyses were performed in ImageJ (NIH), with brightness and contrast linearly adjusted across the entire image for presentation purposes and applied equally between all states under examination.

[6] abbreviates: One site -- Specific binding, fit of all pooled points.

SMILES strings stand for the structures. “And” between values parts separate entries of the source, which are not always exact repeats. Identical values can stand only once. Where a SMILES comes first, the peptide text is derived from it. [ ]: non-standard residue; d: D form. The star is where a group is joined. X1 = CN1C(=CC=CC=CC2=[N+](CCCCCC(=O)NCCN3C(=O)CC(*)C3=O)c3ccccc3C2(C)C)C(C)(C)c2ccccc21; Aib = CC(C)(N)C(=O)O

T2 sequence (P43220 24-463): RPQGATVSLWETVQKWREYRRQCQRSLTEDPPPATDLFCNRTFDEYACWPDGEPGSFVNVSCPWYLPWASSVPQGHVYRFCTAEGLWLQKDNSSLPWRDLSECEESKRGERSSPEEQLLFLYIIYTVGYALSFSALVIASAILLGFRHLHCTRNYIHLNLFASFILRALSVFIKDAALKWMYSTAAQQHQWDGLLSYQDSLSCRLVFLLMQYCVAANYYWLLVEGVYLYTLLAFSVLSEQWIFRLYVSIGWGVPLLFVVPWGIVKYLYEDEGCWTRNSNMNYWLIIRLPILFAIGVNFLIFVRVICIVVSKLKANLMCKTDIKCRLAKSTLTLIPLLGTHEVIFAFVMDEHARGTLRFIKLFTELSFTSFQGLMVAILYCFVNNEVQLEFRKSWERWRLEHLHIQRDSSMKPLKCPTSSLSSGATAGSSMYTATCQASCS

Consider `CC[C@H](C)[C@H](NC(=O)[C@H](CC(C)C)NC(=O)[C@H](Cc1c[nH]c2ccccc12)NC(=O)[C@H](CCC(N)=O)NC(=O)[C@@H](NC(=O)[C@H](Cc1ccccc1)NC(=O)[C@H](C)NC(=O)[C@H](CCCCN)NC(=O)[C@H](CCC(N)=O)NC(=O)[C@H](C)NC(=O)[C@@H](NC(=O)[C@H](CCCCN)NC(=O)[C@H](CC(=O)O)NC(=O)[C@H](CC(C)C)NC(=O)C(C)(C)NC(=O)[C@@H](NC(=O)[C@H](CO)NC(=O)[C@H](Cc1ccc(O)cc1)NC(=O)[C@H](CC(=O)O)NC(=O)[C@H](CO)NC(=O)[C@@H](NC(=O)[C@H](Cc1ccccc1)NC(=O)[C@@H](NC(=O)CNC(=O)[C@H](CCC(=O)O)NC(=O)C(C)(C)NC(=O)[C@@H](N)Cc1ccc(O)cc1)[C@@H](C)O)[C@@H](C)O)[C@@H](C)CC)[C@@H](C)CC)C(C)C)C(=O)N[C@@H](C)C(=O)NCC(=O)NCC(=O)N1CCC[C@H]1C(=O)N[C@@H](CO)C(=O)N[C@@H](CO)C(=O)NCC(=O)N[C@@H](C)C(=O)N1CCC[C@H]1C(=O)N1CCC[C@H]1C(=O)N1CCC[C@H]1C(=O)N[C@@H](CSC1CC(=O)N(CCNC(=O)CCCCC[N+]2=C(C=CC=CC=C3N(C)c4ccccc4C3(C)C)C(C)(C)c3ccccc32)C1=O)C(N)=O` (stereo partly drawn) [daLUXendin660] (H-Y[Aib]EGTFTSDYSI[Aib]LDKIAQKAFVQWLIAGGPSSGAPPPC(X1)-NH2), for which the “Bmax best-fit (nM), hGIPR” value in experiment [1] (Nluc-tagged hGIPR, NanoBRET saturation, n = 3 independent repeats) is recorded as 0.0080 nM. Further, in experiment [1] (setting [6]), the “Bmax, best-fit value, GIPR” value is recorded as 0.01181. Moreover, the “Bmax best-fit (nM), hGLP1R” value in experiment [2] (Nluc-tagged hGLP1R, NanoBRET saturation, n = 3 independent repeats) turned out to be 0.0140 nM. The “Bmax, best-fit value, GLP1R” value in experiment [2] (setting [6]) turned out to be 0.0163. Also, the “effect on food intake” value in experiment [3] is “reduced food intake”. For the same compound, the “effect on blood glucose in glucose tolerance test” value in experiment [4] (10 nmol kg^−1, Glp1r^WT/WT and Glp1r^WT/KO mice) is given as “substantial glucose-lowering effects”. Also, the “Area under the curve for IPGTT” value in experiment [4] (GLP1RKO/KO (KO) mice) was 1726.5 and 1785 and 1967.25 and 1908.75 and 1827 and 1220.25 and 1424.25; in experiment [4] (GLP1RWT/WT and GLP1RWT/KO (WT) mice), 2001 and 1668.75 and 1041.75 and 969.75 and 1068. The “Area under the curve for IPGTT, mean” value in experiment [4] (KO mice, group mean (n = 6 TZP, n = 7 daLUX)) came to 1694; in experiment [4] (WT mice, group mean (n = 6 TZP, n = 5 daLUX)) it was 1350. In addition, in experiment [4] (WT mice, one-way ANOVA, Benjamini, Krieger and Yekutieli), the “Area under the curve for IPGTT, Mean Diff. WT Veh vs. WT treated” value is 966.4. Further, the “Area under the curve for IPGTT, Mean Diff. WT treated vs. KO treated” value in experiment [4] (WT vs. KO mice, one-way ANOVA, Benjamini, Krieger and Yekutieli) is listed as -344.3. Besides, in experiment [5] (GCG+ cells), the “corrected total cell fluorescence, α cells” value is reported as 2.30 × 10^5 ± 1.59 × 10^5 AU. In experiment [5] (INS+ cells), the “corrected total cell fluorescence, β cells” value is on record as 3.60 × 10^5 ± 2.58 × 10^5 AU. Also, the “corrected total cell fluorescence, δ cells” value in experiment [5] (SST+ cells) is 2.16 × 10^5 ± 1.46 × 10^5 AU.
